Assay results taken from ChEMBL document CHEMBL1127248, “Novel water-solutle (7-(acylhydrazono)-formyl camptothecins as potent inhibitors of DNA topoisomerase I” (Bioorg Med Chem Lett, 1994).
In brackets after ≈: the same amount, converted by molar mass.

Legend:
[1] = tested on: HepG2; test: Cytotoxicity in HepG2-T14 cancer cell line; format: functional, cell-based; conditions: Homo sapiens
[2] = tested on: SW480; test: Cytotoxicity in SW480 cancer cell line; format: functional, cell-based; conditions: Homo sapiens
[3] = tested on: KB VCR R; test: Cytotoxicity in KB VCR R cancer cell line; format: functional, cell-based; conditions: Homo sapiens
[4] = tested on: KB; test: Cytotoxicity in KB cancer cell line; format: functional, cell-based; conditions: Homo sapiens
[5] = tested on: KB; test: Cytotoxicity in KB VP-16 R cancer cell line; format: functional, cell-based; conditions: Homo sapiens
[6] = tested on: MCF7; test: Cytotoxicity in MCF-7 cancer cell line; format: functional, cell-based; conditions: Homo sapiens
[7] = Compound was tested for the production of cellular protein-linked DNA breaks when administered at a dose of 25 ug/mL; format: functional
[8] = molecular target: T1, DNA topoisomerase 1 (Homo sapiens) (UniProt P11387); test: Compound was tested for the inhibition of Topoisomerase I when administered at a dose of 25 ug/mL
T1 sequence (whole entry): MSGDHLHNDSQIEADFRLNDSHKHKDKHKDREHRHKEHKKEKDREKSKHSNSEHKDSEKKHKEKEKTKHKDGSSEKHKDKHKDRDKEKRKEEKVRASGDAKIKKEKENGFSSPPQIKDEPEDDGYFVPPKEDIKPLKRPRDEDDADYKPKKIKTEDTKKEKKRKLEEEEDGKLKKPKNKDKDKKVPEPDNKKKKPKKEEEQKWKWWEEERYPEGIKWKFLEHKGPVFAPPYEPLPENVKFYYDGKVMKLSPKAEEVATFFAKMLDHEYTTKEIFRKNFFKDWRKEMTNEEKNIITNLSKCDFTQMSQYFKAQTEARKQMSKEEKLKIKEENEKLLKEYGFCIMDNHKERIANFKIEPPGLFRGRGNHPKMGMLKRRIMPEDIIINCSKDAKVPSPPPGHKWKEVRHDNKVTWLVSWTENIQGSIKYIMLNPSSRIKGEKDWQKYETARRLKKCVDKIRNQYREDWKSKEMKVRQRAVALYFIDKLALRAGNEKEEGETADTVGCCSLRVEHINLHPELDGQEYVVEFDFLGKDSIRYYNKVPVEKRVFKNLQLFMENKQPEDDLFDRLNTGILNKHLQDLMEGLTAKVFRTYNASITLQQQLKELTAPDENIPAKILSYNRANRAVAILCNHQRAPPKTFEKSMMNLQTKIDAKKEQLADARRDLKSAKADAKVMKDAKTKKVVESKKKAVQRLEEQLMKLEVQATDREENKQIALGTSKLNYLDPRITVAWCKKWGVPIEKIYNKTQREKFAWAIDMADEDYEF

Row | Structure (SMILES) | IC50 [1] [µg/mL] | IC50 [2] [µg/mL] | IC50 [3] [µg/mL] | IC50 [4] [µg/mL] | IC50 [5] [µg/mL] | IC50 [6] [µg/mL] | Activity [7] [%] | Topoisomerase I inhibition relative to reference (%) [8] [%]
1 | CC[C@@]1(O)C(=O)OCc2c1cc1n(c2=O)Cc2c-1nc1ccccc1c2/C=N/NC(=O)C(N)CCSC.Cl (stereo partly specified) | 2 | 0.8 | 0.2 | 0.1 | 0.5 | 1 | 111 | 
2 | CC[C@@]1(O)C(=O)OCc2c1cc1n(c2=O)Cc2c-1nc1ccccc1c2/C=N/NC(=O)C(N)CO.Cl (stereo partly specified) | 3.5 | 1 | 3 | 0.12 | 5 | 1 | 79.8 | 145
3 | CC[C@@]1(O)C(=O)OCc2c1cc1n(c2=O)Cc2c-1nc1ccccc1c2/C=N/NC(=O)CN.Cl | 0.6 | 0.1 | 1 | 0.1 | 3 | 0.4 | 110.3 | 116
4 | CC[C@@]1(O)C(=O)OCc2c1cc1n(c2=O)Cc2c-1nc1ccccc1c2/C=N/NC(=O)C(N)Cc1ccc(O)cc1.Cl (stereo partly specified) | 1 | 0.4 | 1 | 0.1 | 5 | 5 | 181 | 
5 | CC[C@@]1(O)C(=O)OCc2c1cc1n(c2=O)Cc2c-1nc1ccccc1c2/C=N/NC(=O)C(C)N.Cl (stereo partly specified) | 2.5 | 0.6 | 3 | 0.1 | 5 | 1 | 93.7 | 98
6 | CC[C@@]1(O)C(=O)OCc2c1cc1n(c2=O)Cc2c-1nc1ccccc1c2/C=N/NC(=O)C(N)CC(C)C.Cl (stereo partly specified) | 0.4 | 0.04 | 0.4 | 0.1 | 1 | 0.15 | 111.7 | 136
7 | CC[C@@]1(O)C(=O)OCc2c1cc1n(c2=O)Cc2cc3ccccc3nc2-1 [CAMPTOTHECIN] | 0.09 (≈ 0.258 µM) | 0.01 (≈ 0.0287 µM) | 0.03 (≈ 0.0861 µM) | 0.01 (≈ 0.0287 µM) | 0.04 (≈ 0.115 µM) | 0.02 (≈ 0.0574 µM) | 100 | 
8 | CC[C@@]1(O)C(=O)OCc2c1cc1n(c2=O)Cc2c-1nc1ccccc1c2/C=N/NC(=O)C1CCCN1.Cl (stereo partly specified) | 1.25 | 0.7 | 5 | 0.04 | 0.6 | 0.8 | 154.6 | 100
